Earlier results, collected in patent publication US20130296430A1, “COMPOSITIONS AND METHODS FOR TREATING AUTISM AND AUTISM SPECTRUM DISORDER” (priority 2012, published 2013).

Conditions: doses less than NAC; effects counter to those reported for NAC; Samstrand et al 1999; cited from earlier work

Structure (SMILES): CC(=O)N[C@@H](CSSC[C@H](NC(C)=O)C(=O)O)C(=O)O [oxidized form of NAC]
- bioactive dose relative to NAC: 10-100 fold
